# Tested on: C. albicans Bar1
# Assay: Bar1 activity on bovine serum albumin
# Type: biochemical, Candida albicans
# Conditions: tested at high protein concentrations, data not shown
row,Substance,Bar1 activity on protein substrate
1,bovine serum albumin: bovine serum albumin tested as a Bar1 substrate,no detectable activity

# Tested on: S. cerevisiae Bar1
# Assay: not given
# Conditions: cited from earlier work
row,Substance,sensitivity of S. cerevisiae Bar1 to inhibitor
1,pepstatin A,insensitive

# Tested on: C. albicans Bar1
# Assay: 127 nM C. albicans Bar1 in 50 µM potassium phosphate solution
# Conditions: 37°C, up to 24 h
Substance,cleaved bond,not cleaved
GAALTNFGYFEPG,"T5-N6, 1 h",
GFAATNFGYFEPG,"T5-N6, 1 h",
GFRAANFGYFEPG,"A5-N6, 1 h",
GFRLAAFGYFEPG,"A5-A6, 1 h",
GFRLTAAGYFEPG,"T5-A6, 1 h",
GFRLTNFAAFEPG,"T5-N6, 1 h",
GFRLTNFGAAEPG,,no products were detected
GFRLTNFGYFEAA,,no products were detected
KFKLTNFGYFEPG,"Thr5-Asn6, 1 h",

# Now from value to substance:
cleaved bond,not cleaved,Substance
"T5-N6, 1 h",,AARLTNFGYFEPG
"T5-N6, 1 h",,GFRLTNAAYFEPG
,no products were detected,GFRLTNFGYAAPG
,no products were detected,GFRLTNFGYEAAG
"threonine5-asparagine6, major, 1 h",,GFRLTNFGYFEPG

# Tested on: Bar1(D232A)
# Assay: 127 nM Bar1
# Conditions: C. albicans, 37°C, up to 1 h
row,Substance,not cleaved
1,GFRLTNFGYFEPG,no cleavage products were generated

# Tested on: Bar1(D232A)
# Assay: 60 nM Bar1
# Conditions: C. albicans, 37°C, up to 90 min
row,Substance,not cleaved
1,GFRLTNFGYFEPG,no detectable cleavage activity
